Experimental data as given in patent publication US20180243274A1, “ANTIBACTERIAL COMPOSITIONS” (WOCKHARDT LIMITED, priority 2013, published 2018).

Legend:
[1] = tested on: E. coli NCTC 13353 producing CTX-M15 and OXA 1 beta-lactamase enzymes; test: Time kill study against E. coli NCTC 13353; assay type: cell-based; conditions: for effect on bacterial counts when used alone: throughout the duration of the study
Procedure: (§1) The synergistic killing effect of the combinations according to invention was studied by performing time kill studies. In a typical time kill study, the freshly grown cultures were diluted to the required cell density (initial starting inoculum) in Cation adjusted Muller Hinton broth medium (BD, USA). The antibacterial agents (either alone or in combination) at the required concentrations were added into the culture-containing medium. The samples were incubated under shaking condition (120 rpm) at 37° C. Enumeration of viable bacterial count was done every 2 hour by diluting in normal saline and plating on to the Tryptic Soya Agar plates (BD, USA). The plates were incubated for 24 hours to arrive at the viable bacterial count. The results are expressed in terms of Log 10 CFU per ml. In general, the decrease of 1 Log 10 CFU/ml corresponds to 90% killing of bacteria. Similarly, 2 Log 10 CFU/ml reductions indicates to 99% killing of bacteria and 3 Log 10 CFU/ml reductions is equal to 99.9% killing of bacteria.
E. coli NCTC 13353 produces resistant CTX-M15 and OXA 1 beta-lactamase enzymes.

[2] = tested on: clinical isolate of E. coli M50 producing CMY 6, DHA—1/2 beta-lactamase enzymes; test: Time kill study against clinical isolate E. coli M50; assay type: cell-based; conditions: for effect on bacterial counts when used alone: throughout the duration of the study
Procedure: as §1
The results on antibacterial activity of the antibacterial agent selected from cefixime, cefpodoxime, ceftibuten or cefuroxime alone and in combination with a compound of Formula (I) against E. coli M50 are given in Table 2. E. coli M50 produces resistant CMY 6, DHA-½ beta-lactamase enzymes.

| Structure (SMILES) | Bacterial count (Log10 CFU/ml) 0 hours ([1]; agent alone 1 mcg/ml) | Bacterial count (Log10 CFU/ml) 2 hours ([1]; agent alone 1 mcg/ml) | Bacterial count (Log10 CFU/ml) 4 hours ([1]; agent alone 1 mcg/ml) | Bacterial count (Log10 CFU/ml) 6 hours ([1]; agent alone 1 mcg/ml) | Bacterial count (Log10 CFU/ml) 24 hours ([1]; agent alone 1 mcg/ml) | Bacterial count (Log10 CFU/ml) 0 hour ([2]; agent alone 4 mcg/ml) | Bacterial count (Log10 CFU/ml) 2 hours ([2]; agent alone 4 mcg/ml) | Bacterial count (Log10 CFU/ml) 4 hours ([2]; agent alone 4 mcg/ml) | Bacterial count (Log10 CFU/ml) 6 hours ([2]; agent alone 4 mcg/ml) | Bacterial count (Log10 CFU/ml) 8 hours ([2]; agent alone 4 mcg/ml) | effect on bacterial counts when used alone [1] | effect on bacterial counts when used alone [2] | further results |
| --- | --- | --- | --- | --- | --- | --- | --- | --- | --- | --- | --- | --- | --- |
| C=CC1=C(C(=O)O)N2C(=O)[C@@H](NC(=O)/C(=N\OCC(=O)O)c3csc(N)n3)[C@H]2SC1 [Cefixime, cefixime] | 7.23 Log10 CFU/ml | 8.65 Log10 CFU/ml | 8.90 Log10 CFU/ml | 8.84 Log10 CFU/ml | 9.06 Log10 CFU/ml | 7.77 Log10 CFU/ml | 8.84 Log10 CFU/ml | 9.20 Log10 CFU/ml | 8.90 Log10 CFU/ml | 9.30 Log10 CFU/ml |  |  |  |
| COCC1=C(C(=O)O)N2C(=O)[C@@H](NC(=O)/C(=N\OC)c3csc(N)n3)[C@H]2SC1 [Cefpodoxime, cefpodoxime] | 7.23 Log10 CFU/ml | 8.17 Log10 CFU/ml | 8.74 Log10 CFU/ml | 8.90 Log10 CFU/ml | 9.06 Log10 CFU/ml | 7.77 Log10 CFU/ml | 8.60 Log10 CFU/ml | 9.04 Log10 CFU/ml | 9.16 Log10 CFU/ml | 9.19 Log10 CFU/ml |  |  |  |
| Nc1nc(/C(=C/CC(=O)O)C(=O)N[C@@H]2C(=O)N3C(C(=O)O)=CCS[C@H]23)cs1 [Ceftibuten, ceftibuten] | 7.23 Log10 CFU/ml | 8.10 Log10 CFU/ml | 8.7 Log10 CFU/ml | 9.04 Log10 CFU/ml | 9.51 Log10 CFU/ml | 7.77 Log10 CFU/ml | 8.48 Log10 CFU/ml | 8.70 Log10 CFU/ml | 9.08 Log10 CFU/ml | 9.20 Log10 CFU/ml | did not reduce the bacterial counts | did not reduce the bacterial counts |  |
| CO/N=C(\C(=O)N[C@@H]1C(=O)N2C(C(=O)O)=C(COC(N)=O)CS[C@H]12)c1ccco1 [Cefuroxime, cefuroxime] | 7.23 Log10 CFU/ml | 8.25 Log10 CFU/ml | 8.80 Log10 CFU/ml | 9.38 Log10 CFU/ml | 9.48 Log10 CFU/ml | 7.77 Log10 CFU/ml | 8.58 Log10 CFU/ml | 9.02 Log10 CFU/ml | 9.2 Log10 CFU/ml | 9.50 Log10 CFU/ml | did not reduce the bacterial counts | did not reduce the bacterial counts |  |
| O=C(NOC[C@@H]1CCCN1)[C@@H]1CC[C@@H]2CN1C(=O)N2OS(=O)(=O)O [Compound of Formula (I), (2S, 5R)-7-oxo-N-[(2S)-pyrrolidin-2-ylmethoxy]-6-(sulfooxy)-1,6-diazabicyclo[3.2.1]octane-2-carboxamide] |  |  |  |  |  | 7.77 Log10 CFU/ml | 8.02 Log10 CFU/ml | 8.09 Log10 CFU/ml | 8.07 Log10 CFU/ml | 8.08 Log10 CFU/ml | did not reduce the bacterial counts | did not reduce the bacterial counts | Bacterial count (Log10 CFU/ml) 0 hours ([1]; alone 4 mcg/ml): 7.23 Log10 CFU/ml; Bacterial count (Log10 CFU/ml) 2 hours ([1]; alone 4 mcg/ml): 7.17 Log10 CFU/ml; Bacterial count (Log10 CFU/ml) 4 hours ([1]; alone 4 mcg/ml): 7.14 Log10 CFU/ml; Bacterial count (Log10 CFU/ml) 6 hours ([1]; alone 4 mcg/ml): 7.11 Log10 CFU/ml; Bacterial count (Log10 CFU/ml) 24 hours ([1]; alone 4 mcg/ml): 7.87 Log10 CFU/ml |
| C[C@@H](O)[C@H]1C(=O)N2C(C(=O)O)=C(SCCN=CN)C[C@H]12 [Imipenem] | 7.23 Log10 CFU/ml | 4.95 Log10 CFU/ml | 4.47 Log10 CFU/ml | 4.39 Log10 CFU/ml | 7.34 Log10 CFU/ml |  |  |  |  |  |  |  | Bacterial count (Log10 CFU/ml) 0 hour ([2]; alone 1 mcg/ml): 7.77 Log10 CFU/ml; Bacterial count (Log10 CFU/ml) 2 hours ([2]; alone 1 mcg/ml): 5.60 Log10 CFU/ml; Bacterial count (Log10 CFU/ml) 4 hours ([2]; alone 1 mcg/ml): 7.47 Log10 CFU/ml; Bacterial count (Log10 CFU/ml) 6 hours ([2]; alone 1 mcg/ml): 8.07 Log10 CFU/ml; Bacterial count (Log10 CFU/ml) 8 hours ([2]; alone 1 mcg/ml): 8.47 Log10 CFU/ml |
